This passage reports IC50 results from US4735958A, “Trans-6-[2-[2-(substituted-phenyl)-3- (or 4-) heteroaryl-5-substituted-1H-pyrrol-1-yl]-ethyl]tetrahydro-4-hydroxy-2H-p yran-2-one inhibitors of cholesterol biosynthesis” (Warner-Lambert Company, priority 1986, dated 1988).

Structures are written as SMILES.

The subject of the test is sterol synthesis. In words: CSI: inhibition of cholesterol biosynthesis, incorporation of cholesterol-^14 C-acetate into nonsaponifiable lipid by rat liver homogenate. As to conditions: 50% inhibition of sterol synthesis over a one-hour period; liver homogenate of rats fed chow diet containing 5% cholestyramine for four days. Format: biochemical. As for the experimental part: The ability of compounds of the present invention to inhibit the biosynthesis of cholesterol was measured by the procedure described by R. E. Dugan et al., Archiv. Biochem. Biophys., (1972), 152, 21-27. In this method, designated CSI, the level of HMG-CoA enzyme activity in standard laboratory rats is increased by feeding the rats a chow diet containing 5% cholestyramine for four days, after which the rats are sacrificed.
The rat livers are homogenized, and the incorporation of cholesterol-^14 C-acetate into nonsaponifiable lipid by the rat liver homogenate is measured. The micromolar concentration of compound required for 50% inhibition of sterol synthesis over a one-hour period is measured, and expressed as an IC50 value.
One may read the IC50 as the concentration at which inhibition is half-maximal. A low value points to higher potency. In the case of `CC(C)c1cc(-c2ccccn2)c(-c2ccc(F)cc2)n1CC[C@H]1C[C@H](O)CC(=O)O1` (racemic) [Compound 1, trans-(±)-6-[2-[2-(4-Fluorophenyl)-5-(1-methylethyl)-3-(2-pyridinyl)-1H-pyrrol-1-yl]ethyl]tetrahydro-4-hydroxy-2H-pyran-2-one], 48 nM corresponded to half-maximal inhibition (IC50).
Next, `CC(C)c1cc(-c2ccncc2)c(-c2ccc(F)cc2)n1CC[C@H]1C[C@H](O)CC(=O)O1` (racemic) [Compound 3, trans-(±)-6-[2-[2-(4-Fluorophenyl)-5-(1-methylethyl)-3-(4-pyridinyl)-1H-pyrrol-1-yl]ethyl]tetrahydro-4-hydroxy-2H-pyran-2-one]: 13 nM; `CC(C)c1cc(-c2cccnc2)c(-c2ccc(F)cc2)n1CC[C@@H]1C[C@@H](O)CC(=O)O1` (relative stereo) [Compound 2, trans-(±)-6-[2-[2-[(4-Fluorophenyl)-5-(1-methylethyl)-3-(3-pyridinyl)-1H-pyrrol-1-yl]ethyl]tetrahydro-4-hydroxy-2H-pyran-2-one]: 55 nM.
`CC[C@H](C)C(=O)O[C@H]1CCC=C2C=C[C@H](C)[C@H](CC[C@@H]3C[C@@H](O)CC(=O)O3)[C@H]21` [Compactin, reference compound] returned a concentration for half-maximal inhibition (IC50) of 18 nM.
